Patent US8710064B2, “2-aryl-4-quinazolinones and their pharmaceutical compositions” (China Medical University, priority 2011, dated 2014)

Columns and labels:
C6 glioma cells [1] = assay: cell cycle assay by flow cytometry with propidium iodide; format: cell-based, rat; settings: 60 nM
Description: To analyze cellular DNA content by flow cytometry, 3×10^5 cells were seeded in 10 cm dish and incubated for 24 hours at 37° C. […] At indicated time points (0, 6, 12, 24 and 48 hr), over 10^6 cells were suspended with 0.05% trypsin-EDTA, and fixed in 70% ethanol over 1 hour at −20° C. After washed by phosphate-buffered saline (PBS) twice, cells were then suspended with 1 ml propidium iodide/Triton-X 100 staining solution (20 μg/ml PI, 0.1% Triton-X 100 and 0.2 mg/ml ribonuclease A (RNase A, Sigma) in PBS) and incubated for 30 minutes at room temperature in the dark. After filtered by 35 μm nylon mesh (Falcon, 352235), the DNA content was then analyzed by flow cytometry (FACS can, BD Bioscience). The cell-cycle distribution (subG1, G1, S, G2/M, and >4N DNA content) of ten thousand cells was analyzed by WinMDI software.
To investigate the cell cycle distribution of MJ-66-treated glioma cell, C6 glioma cells were treated with 60 nM MJ-66 for 0, 6, 12, 24, 36 and 48 hours, and the cell cycle distributions of the percentages of cells at subG1, G1, S and G2/M phases and DNA content of cells were monitored by flow cytometry with propidium iodide staining.

C6 glioma cells [2] = assay: trypan blue exclusion cell death assay, C6 glioma cells; format: cell-based, rat; settings: 60 nM, at the 72nd hour, p<0.05 versus control
Description: Cell viability was also determined by trypan-blue exclusion assay. Cells were seeded in 6-well plates (2×10^4/well) for trypan blue exclusion assay, and incubated for 24 hours at 37° C. Culture medium containing test compound or DMSO (0.006%) was added to each well, and cells were incubated at 37° C. At indicated time points (0, 24, 48, 72 and 96 hr), cells were suspended with 0.05% trypsin-EDTA, and stained with trypan-blue dye (0.4%) (Sigma). The cell viability was evaluated by the percentage of death relative to the total cell, and cell growth curve was determined by number of live cells relative to the total number of cells.
To investigate the glioma cell death induced by MJ-66, cell viability was assessed by trypan blue exclusion assay. C6 and U87 glioma cells treated with MJ-66 (30, 60, 90 nM) or DMSO (0.009%) for 0, 24, 48, 72 and 96 hours (hr) were observed under bright field microscope (FIG. 4A). The percentages of cell death and cell growth curve were determined by trypan blue assay followed by cell counting (mean±SEM, n=3). Relative to total cell number, trypan blue positive cells were defined as dead cells.

[3] = tested on: human glia cell line SVGP12; assay: MTS cell viability assay, normal glia cell line SVGP12; format: cell-based; settings: 0.00625-1 μM
Description: The human glioma cell lines U87, U251, T98G, U373, and rat glioma cell line RT2 provided by Dr. Michael Hsiao (Genomics Research Center, Academia Sinica, Taiwan) were cultured in Dulbecco's Modified Eagle medium (DMEM) (Caisson) supplemented with 10% fetal bovine serum (FBS) (Sigma-Aldrich), 2 mM L-glutamine (Caisson), 100 U/ml penicillin, and 100 μg/ml streptomycin (Caisson). The rat glioma C6 cell line provided by Dr. Shun-Fen Tzeng (National Cheng Kung University, Taiwan) was cultured in DMEM/F12 (Caisson) supplemented with 10% fetal bovine serum, 2 mM L-glutamine, 100 U/ml penicillin, and 100 μg/ml streptomycin. […] Cell proliferation was determined by MTS (tetrazolium compound, 3-(4,5-dimethylthiazol-2-yl)-5-(3-carboxymethoxyphenyl)-2-(4-sulfophenyl)-2H-tetrazolium) assay (Promega). […] The absorbance of soluble formazan was measured at 490 nm with microplate reader (Molecular device). The cell viability was determined by the percentage of the absorption relative to untreated control. […] To investigate the influence of MJ-66 on normal glia such as human glia cell line SVGP12 and rat primary glia cells, cells were treated with different concentrations of MJ-66 in vitro (0.00625, 0.0125, 0.025, 0.05, 0.1 and 1 μM) for different time durations (0, 6, 12 and 24 hours) and the cell viability was assessed by MTS assay. […]

With O=c1[nH]c(-c2cccc3ccccc23)nc2ccc(N3CCCC3)cc12 [Compound 23, 6-(Pyrrolidin-1-yl)-2-(naphthalen-1-yl)quinazolin-4-one] the G2/M cell population (C6 glioma cells [1]; after 6 and 12 hours) was “significantly increased”, the “sub G1 and >4N DNA content cell population” value (C6 glioma cells [1]; after 24, 36 and 48 hours, time-dependent) was “increased” and the “percentage of dead cells, C6” value (C6 glioma cells [2]) was “significantly induced”. The “cell viability of SVGP12” value [3] was “inhibited”.
